Laboratory results: EP0694545B1, “Substituted dibenzoxazepine compounds, pharmaceutical compositions and methods of use” (G.D. SEARLE & CO., priority 1991, dated 1992)
Where a name gives a salt, the structure may show the parent alone.

System: Charles River male albino mice
Experiment: PBQ Writhing Assay (analgesic activity)
Format: in vivo
Set-up: key to PBQ WRITHING ASSAY I.G. (Active / *) / PBQ WRITHING ASSAY S.C. (Active / *): *: Indicates that, in accordance with the particular conditions set forth above for the Writhing Assay, and under the test criteria employed for that assay, after the administration of an initial screening dosage of 30 mg per kilogram of the compound, the number of writhes elicited by a mouse injected with PBQ was not equal to, or less than, one-half the median number of writhes recorded for the saline-treated control group of mice that day
Conditions: initial screening dose 30 mg per kilogram, 30 min before PBQ i.p., writhes counted for ten minutes; for PBQ WRITHING ASSAY I.G. (Active / *): intragastric; for PBQ WRITHING ASSAY S.C. (Active / *): subcutaneous
Source text: The Writhing Assay is one of the most widely-used experimental procedures for measuring the analgesic activity of different narcotic and nonnarcotic analgesic agents, and involves the continuous, chemically-induced pain of visceral origin to an animal, such as a mouse or rat. [Gyires et al., Arch. int. Pharmacodyn, 267, 131-140 (1984); […] al., Fed. Proc., 15, 494 (1956); Koster et al., Fed. Proc., 18, 412 (1959); and Witken et al., J. Pharmacol. exp. Ther., 133, 400-408 (1961).] Chemicals which may be used to induce this pain include phenylbenzoquinone (PBQ) and acetic acid. As a result of the chemical irritation to the animal, a characteristic stretching and writhing of the animal (dorsiflexion of the animal's back, extension of its hindlimbs and the strong contraction of its abdominal musculature) will generally occur. […] Drugs which reduce the number of writhes of the animal appear to restore the normal nociceptive threshold of the animal. Charles River male albino mice, weighing 20 to 30 grams were used in this assay. Thirty minutes after subcutaneous or intragastric administration to ten mice of 30 mg per kilogram of body weight of a compound of the present invention ("test compound"), […] per 10 g of body weight of a 0.025% w/v solution of PBQ was injected intraperitoneally into each mouse. Ten mice which were given saline in place of a test compound of the invention were used as a control group. Five minutes later, each mouse was individually placed into a glass beaker for observation, and the number of writhes occurring during the following ten-minute period was counted. A test compound was considered to have produced analgesia in a mouse if, in accordance with the conditions set forth above, and under the test criteria employed for this assay, after the administration of 30 mg per kilogram of body weight of a compound of the present invention to the mouse, the number of writhes elicited by a mouse injected with PBQ was equal to, or less than, one-half the median number of writhes recorded for the saline-treated control group of mice that day, as described by Taber in "Predictive Value of Analgesic Assays in Mice and Rats," Advances in Biochemical Psychopharmacology, 8, 191 (1974). The standard initial screening dose of a test compound employed in this assay was […] for both routes of administration. If this initial screening dose of the test compound produced analgesia in seven of ten mice, then the effect of additional doses of the test compound on the writhing response was evaluated, and then the ED50 dose was generally calculated. (The slopes of the dose-response curves for all test compounds analyzed were compared as described by Tallarida and Murray, Manual of Pharmacologic Calculations, Page 11 (Springer Verlag, New York, 1981)).

Molecule	PBQ WRITHING ASSAY I.G. (Active / *)	PBQ WRITHING ASSAY S.C. (Active / *)
8-chlorodibenz[b,f][1,4]oxazepine-10(11H)-carboxylic acid, 2-[1-oxo-4-(3-thienyl)-3E-butenyl]hydrazide [Example 13]	*	*
8-chlorodibenz[b,f][1,4]oxazepine-10(11H)-carboxylic acid, 2-[1-oxo-4-(3-thienyl)-3Z-butenyl]hydrazide [Example 14]	*	*
8-chlorodibenz[b,f][1,4loxazepine-10(11H)-carboxylic acid, 2-(2-pyridinylacetyl)hydrazide, monohydrochloride [Example 21]	*	*
O=C(/C=C/c1cccnc1)NNC(=O)N1Cc2ccccc2Oc2ccc(Cl)cc21 [Example 7, 8-chlorodibenz[b,f][1,4]oxazepine-10(11H)-carboxylic acid, 2-[1-oxo-3-(3-pyridinyl)-2E-propenyl]hydrazide]	Active	Active
O=C(CCc1cccnc1)NNC(=O)N1Cc2ccccc2Oc2ccc(Cl)cc21 [Example 8, 8-chlorodibenz[b,f][1,4]oxazepine-10(11H)-carboxylic acid, 2-[1-oxo-3-(3-pyridinyl)propyl]hydrazide, monohydrochloride]	Active	Active
O=C(CCc1cccc[n+]1[O-])NNC(=O)N1Cc2ccccc2Oc2ccc(Cl)cc21 [Example 10, 8-chlorodibenz[b,f][1,4]oxazepine-10(11H)--carboxylic acid, 2-[1-oxo-3-(2-pyridinyl)propyl]hydrazide, N-oxide]	*	*
O=C(CCCc1ccsc1)NNC(=O)N1Cc2ccccc2Oc2ccc(Cl)cc21 [Example 16, 8-chlorodibenz[b,f][1,4]oxazepine-10(11H)-carboxylic acid, 2-[1-oxo-4-(3-thienyl)butyl]hydrazide]	Active	*
Cl.O=C(NNC(=O)N1Cc2ccccc2Oc2ccc(Cl)cc21)c1ccncc1 [Example 17, 8-chlorodibenz[b,f][1,4]oxazepine-10(11H)-carboxylic acid, 2-(4-pyridinylcarbonyl)hydrazide, monohydrochloride]	*	*
Cl.O=C(NNC(=O)N1Cc2ccccc2Oc2ccc(Cl)cc21)c1cccnc1 [Example 18, 8-chlorodibenz[b,f][1,4]oxazepine-10(11H)-carboxylic acid, 2-(3-pyridinylcarbonyl)hydrazide, monohydrochloride]	*	*
Cl.O=C(NNC(=O)N1Cc2ccccc2Oc2ccc(Cl)cc21)c1ccccn1 [Example 19, 8-chlorodibenz[b,f][1,4]oxazepine-10(11H)-carboxylic acid, 2-(2-pyridinylcarbonyl)hydrazide, monohydrochloride]	*	*
Cl.O=C(/C=C/c1ccccn1)NNC(=O)N1Cc2ccccc2Oc2ccc(Cl)cc21 [Example 20, 8-chlorodibenz[b,f][1,4]oxazepine-10(11H)-carboxylic acid, 2-[1-oxo-3-(2-pyridinyl)-2E-propenyl]hydrazide, monohydrochloride]	*	*
Cl.O=C(Cc1cccnc1)NNC(=O)N1Cc2ccccc2Oc2ccc(Cl)cc21 [Example 22, 8-chlorodibenz[b,f][1,4]oxazepine-10(11H)-carboxylic acid, 2-(3-pyridinylacetyl)hydrazide, monohydrochloride]	*	Active
